We go through three compounds from paper PMC2758911 (Clinical cancer research : an official journal of the …, 2009).

Structures are written as SMILES.

For data set [1], the system named is relapsed/refractory multiple myeloma patients.
A further data set relates to QT interval. To be noted: cited from earlier work.
The subject of data set [2] is relapsed and refractory myeloma patients. To be noted: cited from earlier work.
A short description of data set [3]: Vorinostat serum pharmacokinetics, day 4 of cycle 1. The class given is in vivo, human. To be noted: for Tmax / half-life / AUC(0-inf) / Cmax: human, po.
Where [4] appears, read: single patient with grade 3 event, baseline QTc 394 msec.
Where [5] appears, read: vorinostat 400 mg daily, ECG 3 hours after vorinostat.

`CC(C)C[C@H](NC(=O)[C@H](Cc1ccccc1)NC(=O)c1cnccn1)B(O)O` [bortezomib]: the “Bortezomib dose at the MTD of the combination” value in data set [1] (days 1, 4, 8, 11 of 21-day cycle, with vorinostat 400 mg daily for 8 days) was determined as 1.3 mg/m2. Further, the “Patients in whom bortezomib was decreased from 1.3 mg/m2 to 1 mg/m2” value in data set [1] (human, in vivo) is on record as 8 patients.

With `Cc1[nH]c2ccccc2c1CCNCc1ccc(/C=C/C(=O)NO)cc1` [panobinostat], the “QTc prolongation in phase I and/or II studies” value in the data set with QT interval is on record as “have shown evidence of QTc prolongation”.

Take `O=C(CCCCCCC(=O)Nc1ccccc1)NO` [vorinostat, suberoylanilide hydroxamic acid]: the “Tolerability and disease stabilization” value in data set [2] (heavily pre-treated population) was “favorable tolerability and evidence of disease stabilization”. In data set [2] (relapsed and refractory myeloma patients), the Single-agent activity result is on record as “failed to establish significant single-agent activity”. In data set [3] (Student t-test, p=0.35), the Cmax (in general, the maximum level reached in the sampled fluid or tissue) at 400 mg versus 500 mg is given as “not statistically different”. Also, in data set [3] (doses 100–500 mg), the “Dose proportionality of vorinostat pharmacokinetics (AUC)” value is recorded as “the increase was greater than proportional” and the “Serum Cmax versus dose” value was “reached a plateau above 400 mg”. For the same compound, the “Dose proportionality of vorinostat pharmacokinetics (AUC)” value in data set [3] (doses 100–500 mg, listed as Vorinostat) was “non-linear”. Moreover, in data set [3] (serum), the Tmax (usually the time from dosing to the highest level) is 0.5 to 6 h and the half-life – broadly, how long it takes for the measured level to halve – was in the range of 0.8 to 7.6 h. Further, in data set [3] (serum, 100 mg), the AUC(0-inf) – broadly, total exposure, with the tail of the curve extrapolated – worked out at 760 µM·h; the Cmax came to 310 µM; the Tmax came to 1.3 h; the half-life is 1.3 h. In data set [3] (serum, 200 mg), the AUC(0-inf) is 2030 µM·h, the Cmax is 650 µM and the Tmax came out at 1.3 h. In data set [3] (serum, 400 mg), this compound returned an AUC(0-inf) of 5130 µM·h and a Cmax of 1420 µM. In data set [3] (serum, 500 mg), the AUC(0-inf) is 8100 µM·h, the Cmax was 1330 µM, the Tmax stood at 3.8 h and the half-life was 4.4 h. Further, in data set [3] (linear regression, p=0.001, CL/F decreased with increasing dose), the “Slope of Cl/F (L/min) versus dose (mg)” value is on record as −0.014. In data set [3] (vorinostat 200 mg BID oral (n=3), serum, day 4 cycle 1, with bortezomib), the “t1/2, mean” value was 2.4 h. Also, the “QTc prolongation in phase I and/or II studies” value in the data set with QT interval was “have shown evidence of QTc prolongation”. In data set [1] (in vivo), the “Patients who required a decrease in vorinostat dose for grade 3 diarrhea” value stood at 3 patients. Moreover, the “Maximum tolerated dose (MTD) of vorinostat” value in data set [1] (oral once daily for 8 days (days 4–11) every 21 days, with bortezomib 1.3 mg/m2 days 1, 4, 8, 11) was determined as 400 mg. Also, in data set [1] (setting [4]), the cQT after vorinostat worked out at 633 ms and the “cQT at 24 hours” value came to 389 ms. In data set [1] (setting [5]), the “Prolongation of QTc grade 1, patients” value came to 7 and the “Prolongation of QTc grade 2, patients” value was 2.
